Measurements from PubChem BioAssay AID2060888 (Molecular Pharmacology Branch, DTP, NCI, 2025).

Test system: 695427-040-R-J1-PDC complex spheroid viability
Experiment: Anticancer human tumor 695427-040-R-J1-PDC patient-derived colon adenocarcinoma cell line growth inhibition [RAS]
Conditions: for IC50: curve of first compound; for viability, T/C: stronger effect = lower value
How it was run: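 Agents were tested in combination matrices in half-log decrements from a top concentration at or near clinical Cmax (10 microM if undetermined). Targets were multi-cell spheroids of tumour lines plus HUVEC and MSC stromal cells.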

[1] = second compound 0.00316 µM, first compound 0.000949 µM
[2] = second compound 0.00316 µM, first compound 0.003 µM
[3] = second compound 0.00316 µM, first compound 0.00949 µM
[4] = second compound 0.00316 µM, first compound 0.03 µM
[5] = second compound 0.00316 µM, first compound 0.0949 µM
[6] = second compound 0.00316 µM, first compound 0.3 µM
[7] = second compound 0.01 µM, first compound 0.000949 µM
[8] = second compound 0.01 µM, first compound 0.003 µM
[9] = second compound 0.01 µM, first compound 0.00949 µM
[10] = second compound 0.01 µM, first compound 0.03 µM
[11] = second compound 0.01 µM, first compound 0.0949 µM
[12] = second compound 0.01 µM, first compound 0.3 µM
[13] = second compound 0.0316 µM, first compound 0.000949 µM
[14] = second compound 0.0316 µM, first compound 0.003 µM
[15] = second compound 0.0316 µM, first compound 0.00949 µM
[16] = second compound 0.0316 µM, first compound 0.03 µM
[17] = second compound 0.0316 µM, first compound 0.0949 µM
[18] = second compound 0.0316 µM, first compound 0.3 µM
[19] = second compound 0.1 µM, first compound 0.000949 µM
[20] = second compound 0.1 µM, first compound 0.003 µM
[21] = second compound 0.1 µM, first compound 0.00949 µM
[22] = second compound 0.1 µM, first compound 0.03 µM
[23] = second compound 0.1 µM, first compound 0.0949 µM
[24] = second compound 0.1 µM, first compound 0.3 µM
[25] = second compound 0.316 µM, first compound 0.000949 µM
[26] = second compound 0.316 µM, first compound 0.003 µM
[27] = second compound 0.316 µM, first compound 0.00949 µM
[28] = second compound 0.316 µM, first compound 0.03 µM
[29] = second compound 0.316 µM, first compound 0.0949 µM
[30] = second compound 0.316 µM, first compound 0.3 µM
[31] = second compound 1 µM, first compound 0.000949 µM
[32] = second compound 1 µM, first compound 0.003 µM
[33] = second compound 1 µM, first compound 0.00949 µM
[34] = second compound 1 µM, first compound 0.03 µM
[35] = second compound 1 µM, first compound 0.0949 µM
[36] = second compound 1 µM, first compound 0.3 µM
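Also: viability read after seven days of drug exposure.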
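For viability, T/C in this document: 100% = DMSO vehicle control viability.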

CC(=O)OC12COC1CC(O)C1(C)C(=O)C(O)C3=C(C)C(OC(=O)C(O)C(NC(=O)OC(C)(C)C)c4ccccc4)CC(O)(C(OC(=O)c4ccccc4)C21)C3(C)C (stereo unspecified) + C=CC(=O)N1CCN(c2nc(OCC3CCCN3C)nc3c(F)c(-c4nc(N)cc(C)c4C(F)(F)F)c(Cl)cc23)C(C)C1
IC50 (second compound 0.00316 µM): > 10 µM | IC50 (second compound 0.01 µM): > 10 µM | IC50 (second compound 0.0316 µM): > 10 µM | IC50 (second compound 0.1 µM): > 10 µM | IC50 (second compound 0.316 µM): > 10 µM | IC50 (second compound 1 µM): > 10 µM | viability, T/C (second compound 0.00316 µM, first compound 0.0316 µM): 67.3% | viability, T/C (second compound 0.00316 µM, first compound 0.1 µM): 69% | viability, T/C (second compound 0.00316 µM, first compound 0.316 µM): 74.2% | viability, T/C (second compound 0.00316 µM, first compound 1 µM): 78.9% | viability, T/C (second compound 0.00316 µM, first compound 3.16 µM): 91.5% | viability, T/C (second compound 0.00316 µM, first compound 10 µM): 98% | viability, T/C (second compound 0.01 µM, first compound 0.0316 µM): 71.8% | viability, T/C (second compound 0.01 µM, first compound 0.1 µM): 66.8% | viability, T/C (second compound 0.01 µM, first compound 0.316 µM): 71% | viability, T/C (second compound 0.01 µM, first compound 1 µM): 79.7% | viability, T/C (second compound 0.01 µM, first compound 3.16 µM): 93% | viability, T/C (second compound 0.01 µM, first compound 10 µM): 89.3% | viability, T/C (second compound 0.0316 µM, first compound 0.0316 µM): 71% | viability, T/C (second compound 0.0316 µM, first compound 0.1 µM): 72.8% | viability, T/C (second compound 0.0316 µM, first compound 0.316 µM): 77.2% | viability, T/C (second compound 0.0316 µM, first compound 1 µM): 78% | viability, T/C (second compound 0.0316 µM, first compound 3.16 µM): 83.7% | viability, T/C (second compound 0.0316 µM, first compound 10 µM): 89.5% | viability, T/C (second compound 0.1 µM, first compound 0.0316 µM): 70.6% | viability, T/C (second compound 0.1 µM, first compound 0.1 µM): 71.3% | viability, T/C (second compound 0.1 µM, first compound 0.316 µM): 74% | viability, T/C (second compound 0.1 µM, first compound 1 µM): 76.2% | viability, T/C (second compound 0.1 µM, first compound 3.16 µM): 93.6% | viability, T/C (second compound 0.1 µM, first compound 10 µM): 96.9% | viability, T/C (second compound 0.316 µM, first compound 0.0316 µM): 75.2% | viability, T/C (second compound 0.316 µM, first compound 0.1 µM): 73.6% | viability, T/C (second compound 0.316 µM, first compound 0.316 µM): 83.8% | viability, T/C (second compound 0.316 µM, first compound 1 µM): 75% | viability, T/C (second compound 0.316 µM, first compound 3.16 µM): 93.1% | viability, T/C (second compound 0.316 µM, first compound 10 µM): 95.7% | viability, T/C (second compound 1 µM, first compound 0.0316 µM): 76.4% | viability, T/C (second compound 1 µM, first compound 0.1 µM): 68.5% | viability, T/C (second compound 1 µM, first compound 0.316 µM): 77.3% | viability, T/C (second compound 1 µM, first compound 1 µM): 83.4% | viability, T/C (second compound 1 µM, first compound 3.16 µM): 88.7% | viability, T/C (second compound 1 µM, first compound 10 µM): 91.8%

CC1(C)CCC(Nc2ncc(C(F)(F)F)c(-c3c[nH]c4c(P(C)(C)=O)c(C#N)ccc34)n2)CN1 (stereo unspecified) + C=CC(=O)N1CCN(c2nc(OCC3CCCN3C)nc3c(F)c(-c4nc(N)cc(C)c4C(F)(F)F)c(Cl)cc23)C(C)C1
IC50 (second compound 0.00316 µM): > 0.3 µM | IC50 (second compound 0.01 µM): > 0.3 µM | IC50 (second compound 0.0316 µM): > 0.3 µM | IC50 (second compound 0.1 µM): > 0.3 µM | IC50 (second compound 0.316 µM): > 0.3 µM | IC50 (second compound 1 µM): > 0.3 µM | viability, T/C [1]: 116% | viability, T/C [2]: 107% | viability, T/C [3]: 90.6% | viability, T/C [4]: 86.5% | viability, T/C [5]: 84.6% | viability, T/C [6]: 79.2% | viability, T/C [7]: 95.8% | viability, T/C [8]: 93.3% | viability, T/C [9]: 88.4% | viability, T/C [10]: 78.8% | viability, T/C [11]: 82.9% | viability, T/C [12]: 84.9% | viability, T/C [13]: 108% | viability, T/C [14]: 89.9% | viability, T/C [15]: 96.2% | viability, T/C [16]: 75.7% | viability, T/C [17]: 86.9% | viability, T/C [18]: 77.4% | viability, T/C [19]: 89.5% | viability, T/C [20]: 95.4% | viability, T/C [21]: 101% | viability, T/C [22]: 84.7% | viability, T/C [23]: 88% | viability, T/C [24]: 78.4% | viability, T/C [25]: 99% | viability, T/C [26]: 94% | viability, T/C [27]: 96.3% | viability, T/C [28]: 83.8% | viability, T/C [29]: 83.9% | viability, T/C [30]: 81.1% | viability, T/C [31]: 90.2% | viability, T/C [32]: 87.3% | viability, T/C [33]: 96.3% | viability, T/C [34]: 78.6% | viability, T/C [35]: 88.9% | viability, T/C [36]: 79.2%

CCc1c2c(nc3ccc(O)cc13)-c1cc3c(c(=O)n1C2)COC(=O)[C@]3(O)CC + C=CC(=O)N1CCN(c2nc(OCC3CCCN3C)nc3c(F)c(-c4nc(N)cc(C)c4C(F)(F)F)c(Cl)cc23)C(C)C1
IC50 (second compound 0.00316 µM): 0.112 µM | IC50 (second compound 0.01 µM): 0.123 µM | IC50 (second compound 0.0316 µM): 0.129 µM | IC50 (second compound 0.1 µM): 0.128 µM | IC50 (second compound 0.316 µM): 0.144 µM | IC50 (second compound 1 µM): 0.162 µM | viability, T/C [1]: 88% | viability, T/C [2]: 88.2% | viability, T/C [3]: 84.8% | viability, T/C [4]: 74.5% | viability, T/C [5]: 54.3% | viability, T/C [6]: 25.5% | viability, T/C [7]: 98.8% | viability, T/C [8]: 92.1% | viability, T/C [9]: 78.7% | viability, T/C [10]: 72.9% | viability, T/C [11]: 58.4% | viability, T/C [12]: 30.9% | viability, T/C [13]: 92.7% | viability, T/C [14]: 88.1% | viability, T/C [15]: 79.4% | viability, T/C [16]: 75.8% | viability, T/C [17]: 60.9% | viability, T/C [18]: 25.6% | viability, T/C [19]: 94.8% | viability, T/C [20]: 88.6% | viability, T/C [21]: 79.3% | viability, T/C [22]: 68.9% | viability, T/C [23]: 60% | viability, T/C [24]: 32% | viability, T/C [25]: 96% | viability, T/C [26]: 91.9% | viability, T/C [27]: 82.7% | viability, T/C [28]: 80% | viability, T/C [29]: 63.6% | viability, T/C [30]: 28.3% | viability, T/C [31]: 93.2% | viability, T/C [32]: 93.4% | viability, T/C [33]: 85.1% | viability, T/C [34]: 85.3% | viability, T/C [35]: 62.4% | viability, T/C [36]: 34.9%
